Reference: PubChem BioAssay AID330 (DTP/NCI, 2004)
Values joined by “and” are separate entries in the source; they are usually repeats but may differ in a detail not shown here. Equal entries are not always repeated. Inconclusive results and toxic doses are left out. How the source made its calls: active means survival T/C of 150% or more; inactive means T/C below 125% in these data. Square brackets hold non-standard residues; d marks the D form. Peptide text beside a SMILES is read from it. * marks the point of attachment. ξ: configuration not given here. Cbz = O=C(OCc1ccccc1)*; ξM = CSCCC(N)C(=O)O

System: P388 leukemia ip, CD2F1 mice, survival T/C
Experiment: NCI In Vivo Anticancer Drug Screen. Data for tumor model P388 Leukemia (intraperitoneal) in CD2F1 (CDF1) mice
Conditions: endpoint: median survival time, higher = longer survival
Summary of the method: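 Mice carrying the transplanted tumor received test compound or vehicle. Survival was recorded in each group, and the value is the treated-group measurement divided by that of the vehicle-treated control group.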

[1] = dose: 50.0 mg/kg/injection, schedule: Q01DX005 (ip), vehicle: Klucel (hydroxypropylcellulose) (HPC)
[2] = dose: 100.0 mg/kg/injection, schedule: Q01DX005 (ip), vehicle: Klucel (hydroxypropylcellulose) (HPC)
[3] = dose: 200.0 mg/kg/injection, schedule: Q01DX005 (ip), vehicle: Klucel (hydroxypropylcellulose) (HPC)
[4] = dose: 60.0 mg/kg/injection, schedule: Q01DX005 (ip), vehicle: saline with Tween-80
[5] = dose: 120.0 mg/kg/injection, schedule: Q01DX005 (ip), vehicle: saline with Tween-80
[6] = dose: 240.0 mg/kg/injection, schedule: Q01DX005 (ip), vehicle: saline with Tween-80
[7] = dose: 6.25 mg/kg/injection, schedule: Q01DX009 (ip), vehicle: saline with Tween-80
[8] = dose: 12.5 mg/kg/injection, schedule: Q01DX009 (ip), vehicle: saline with Tween-80
[9] = dose: 25.0 mg/kg/injection, schedule: Q01DX009 (ip), vehicle: saline with Tween-80
[10] = dose: 50.0 mg/kg/injection, schedule: Q01DX009 (ip), vehicle: saline with Tween-80
[11] = dose: 100.0 mg/kg/injection, schedule: Q04DX003 (ip), vehicle: saline with Tween-80
[12] = dose: 200.0 mg/kg/injection, schedule: Q04DX003 (ip), vehicle: saline with Tween-80
[13] = dose: 400.0 mg/kg/injection, schedule: Q04DX003 (ip), vehicle: saline with Tween-80

Measured: T/C

CSCCC(NC(=O)CNC(=O)CNC(=O)OCc1ccccc1)C(=O)O (stereo not drawn) (Cbz-Gly-Gly-[ξM]-OH)
inactive: [1] 95 % of control | [2] 98 % of control | [3] 98 % of control

C=CC1CCCCC1C=C (stereo not given)
inactive: dose: 12.5 mg/kg/injection, schedule: Q04DX003 (ip), vehicle: saline 100 % of control | dose: 25.0 mg/kg/injection, schedule: Q04DX003 (ip), vehicle: saline 113 % of control | dose: 50.0 mg/kg/injection, schedule: Q04DX003 (ip), vehicle: saline 100 % of control

Nc1nc(N)nc(CNc2c(Br)cc(Br)cc2Br)n1
inactive: [4] 93 % of control | [5] 101 % of control | [6] 90 % of control

CSc1ncnc2c1cnn2C1OC(CO)C(O)C1O (stereo not given)
inactive: [7] 104 % of control | [8] 98 % of control | [9] 116 % of control | [10] 100 % of control

O=C(/C=C/c1cn(C(=O)CCCl)c2ccccc12)c1cccc([N+](=O)[O-])c1
inactive: [4] 99 % of control | [5] 96 % of control | [6] 89 % of control

COc1cccc2c1C(=O)c1c(O)c3c(c(O)c1C2=O)CC(O)(C(C)=O)CC3OC1CC(N)C(O)C(C)O1 (stereo not given) (tested in a mixture with another compound)
inactive: dose: 4.69 mg/kg/injection, schedule: Q04DX003 (ip), vehicle: water 105 % of control and 110 % of control and 114 % of control | dose: 9.38 mg/kg/injection, schedule: Q04DX003 (ip), vehicle: water 114 % of control and 124 % of control and 112 % of control | dose: 9.4 mg/kg/injection, schedule: Q04DX003 (ip), vehicle: water 118 % of control and 103 % of control | dose: 18.75 mg/kg/injection, schedule: Q04DX003 (ip), vehicle: water 114 % of control and 112 % of control and 116 % of control | dose: 37.5 mg/kg/injection, schedule: Q04DX003 (ip), vehicle: water 114 % of control and 124 % of control and 118 % of control | dose: 75.0 mg/kg/injection, schedule: Q04DX003 (ip), vehicle: water 109 % of control [middle of 6 runs] | dose: 150.0 mg/kg/injection, schedule: Q04DX003 (ip), vehicle: water 91 % of control and 98 % of control

OCC(O)C(O)C(O)c1nn(-c2ccccc2)c2nc3ccc(Cl)cc3nc12 (stereo not given)
inactive: [1] 90 % of control | [2] 90 % of control | [3] 89 % of control

CN(C(=S)NNC(=O)C1CCC(=O)N1)c1ccccc1 (stereo not given)
inactive: [4] 99 % of control | [5] 98 % of control | [6] 103 % of control

CCC(=O)C12CCCC1=NC(=N)N=C2C1=NC(=N)N=C2CCCC21C(=O)CC (stereo not given)
inactive: dose: 60.0 mg/kg/injection, schedule: Q01DX005 (ip), vehicle: saline 102 % of control | dose: 120.0 mg/kg/injection, schedule: Q01DX005 (ip), vehicle: saline 108 % of control | dose: 240.0 mg/kg/injection, schedule: Q01DX005 (ip), vehicle: saline 88 % of control

C1CCC(N=C(NC2CCCCC2)N2CCOCC2)CC1
inactive: dose: 6.25 mg/kg/injection, schedule: Q01DX009 (ip), vehicle: saline 99 % of control | dose: 12.5 mg/kg/injection, schedule: Q01DX009 (ip), vehicle: saline 99 % of control | dose: 25.0 mg/kg/injection, schedule: Q01DX009 (ip), vehicle: saline 100 % of control | dose: 50.0 mg/kg/injection, schedule: Q01DX009 (ip), vehicle: saline 89 % of control

[I][Pt+2][I].[NH-]C(c1ccccc1)C([NH-])c1ccccc1 (stereo not given)
inactive: dose: 12.5 mg/kg/injection, schedule: Q04DX002 (ip), vehicle: saline with Tween-80 102 % of control | dose: 25.0 mg/kg/injection, schedule: Q04DX002 (ip), vehicle: saline with Tween-80 109 % of control and 111 % of control | dose: 50.0 mg/kg/injection, schedule: Q04DX002 (ip), vehicle: saline with Tween-80 115 % of control

C/C(=N\NC(=S)N1CCCCCC1)c1cc2ccccc2cn1
inactive: dose: 3.12 mg/kg/injection, schedule: Q01DX005 (ip), vehicle: distilled water + Tween-80 + alcohol 100 % of control | dose: 6.25 mg/kg/injection, schedule: Q01DX005 (ip), vehicle: Klucel (hydroxypropylcellulose) (HPC) 117 % of control | dose: 6.25 mg/kg/injection, schedule: Q01DX005 (ip), vehicle: distilled water + Tween-80 + alcohol 111 % of control | dose: 12.5 mg/kg/injection, schedule: Q01DX005 (ip), vehicle: Klucel (hydroxypropylcellulose) (HPC) 116 % of control | dose: 12.5 mg/kg/injection, schedule: Q01DX005 (ip), vehicle: distilled water + Tween-80 + alcohol 105 % of control | dose: 25.0 mg/kg/injection, schedule: Q01DX005 (ip), vehicle: Klucel (hydroxypropylcellulose) (HPC) 121 % of control | dose: 25.0 mg/kg/injection, schedule: Q01DX005 (ip), vehicle: distilled water + Tween-80 + alcohol 118 % of control

O=c1[nH]c(=O)c2cc3[nH]ncc3cc2[nH]1
inactive: dose: 25.0 mg/kg/injection, schedule: Q01DX005 (ip), vehicle: saline with Tween-80 93 % of control | dose: 50.0 mg/kg/injection, schedule: Q01DX005 (ip), vehicle: saline with Tween-80 93 % of control | dose: 100.0 mg/kg/injection, schedule: Q01DX005 (ip), vehicle: saline with Tween-80 92 % of control

O=C(N/N=C/c1cc(Cl)cc(Cl)c1O)c1ccccc1
inactive: dose: 100.0 mg/kg/injection, schedule: Q01DX001 (ip), vehicle: saline with Tween-80 96 % of control | dose: 200.0 mg/kg/injection, schedule: Q01DX001 (ip), vehicle: saline with Tween-80 98 % of control | dose: 400.0 mg/kg/injection, schedule: Q01DX001 (ip), vehicle: saline with Tween-80 103 % of control

Clc1cccc2c(-c3ccccc3)c3cccc(Cl)c3cc12
inactive: [10] 101 % of control | dose: 100.0 mg/kg/injection, schedule: Q01DX009 (ip), vehicle: saline with Tween-80 97 % of control | dose: 200.0 mg/kg/injection, schedule: Q01DX009 (ip), vehicle: saline with Tween-80 96 % of control

CC(=O)OCC(=O)[C@@]12OC(C)(C)O[C@@H]1C[C@H]1[C@@H]3CC(C=O)=C4C=C(OCCCl)CC[C@]4(C)[C@@]3(F)[C@@H](O)C[C@@]12C
inactive: dose: 0.39 mg/kg/injection, schedule: Q01DX009 (ip), vehicle: Klucel (hydroxypropylcellulose) (HPC) 106 % of control | dose: 0.78 mg/kg/injection, schedule: Q01DX009 (ip), vehicle: Klucel (hydroxypropylcellulose) (HPC) 113 % of control | dose: 1.56 mg/kg/injection, schedule: Q01DX009 (ip), vehicle: Klucel (hydroxypropylcellulose) (HPC) 115 % of control

CSCS(=O)CC(C)C (stereo not given)
inactive: dose: 50.0 mg/kg/injection, schedule: Q01DX005 (ip), vehicle: water 104 % of control | dose: 100.0 mg/kg/injection, schedule: Q01DX005 (ip), vehicle: water 102 % of control | dose: 200.0 mg/kg/injection, schedule: Q01DX005 (ip), vehicle: water 105 % of control

O=S(=O)(c1ccc(Cl)c(Cl)c1)N(c1cccc(C(F)(F)F)c1)S(=O)(=O)c1ccc(Cl)c(Cl)c1
inactive: [7] 100 % of control | [8] 94 % of control | [9] 97 % of control

O=c1c2ccccc2c2nccn2c2ccccc12
inactive: [4] 90 % of control | [5] 90 % of control | [6] 96 % of control

CCc1cc(Cc2cc(CC)cc(C(C)(C)C)c2O)c(O)c(C(C)(C)C)c1
inactive: dose: 100.0 mg/kg/injection, schedule: Q01DX009 (ip), vehicle: Klucel (hydroxypropylcellulose) (HPC) 107 % of control | dose: 200.0 mg/kg/injection, schedule: Q01DX009 (ip), vehicle: Klucel (hydroxypropylcellulose) (HPC) 90 % of control | dose: 400.0 mg/kg/injection, schedule: Q01DX009 (ip), vehicle: Klucel (hydroxypropylcellulose) (HPC) 104 % of control and 90 % of control

c1ccc2c(c1)/C(=N/c1nccs1)N/C2=N\c1nccs1
inactive: [11] 97 % of control | [12] 93 % of control | [13] 91 % of control

Cc1csnn1
inactive: dose: 15.0 mg/kg/injection, schedule: Q01DX005 (ip), vehicle: saline with Tween-80 105 % of control | dose: 30.0 mg/kg/injection, schedule: Q01DX005 (ip), vehicle: saline with Tween-80 100 % of control | [4] 102 % of control

CC1(C)C[C@H](OC2CCCCO2)[C@H]2O[C@@]2(C)C1 (stereo not given in full)
inactive: dose: 100.0 mg/kg/injection, schedule: Q04DX002 (ip), vehicle: saline 103 % of control | dose: 200.0 mg/kg/injection, schedule: Q04DX002 (ip), vehicle: saline 102 % of control | dose: 400.0 mg/kg/injection, schedule: Q04DX002 (ip), vehicle: saline 96 % of control

O=c1c2oc3ccccc3c2cnn1CCl
inactive: [1] 103 % of control | [2] 103 % of control | [3] 96 % of control

O=C(O)CSc1ccc(NC(=O)NC2CCCCC2)cc1
inactive: [11] 100 % of control | [12] 100 % of control | [13] 100 % of control
